Measurements reported in US10383938B2 (priority 2010, dated 2019).
Where “and” joins values, the source holds several entries; their conditions need not be identical. Identical values can stand only once.

Experiments:
[1] = tested on: HA-specific IgG2a; set-up: species or system mice; conditions: mouse, in vivo, sc, 1 mg/kg
[2] = tested on: HA-specific IgG1 and IgG2a; set-up: species or system Balb/c male mice; conditions: mouse, in vivo

SMILES	HA Specific IgG2a, Serum Dilution End Point [1]	IgG1 End Point [2]	antibody response to HA (in words) ([2]; 0.1 mg/kg)
CCCCCCCCCCCCCCCCCC(=O)NCCCCOn1c(CCCC)nc2c(N)nc3ccccc3c21 [N-(4-{[4-amino-2-butyl-1H-imidazo[4,5-c]quinolin-1-yl]oxy}butyl)octadecanamide]	1.42E+04	1.7E7 and 1.4E7 and 1.1E7	greatly enhanced the antibody response
CCOCc1nc2c(N)nc3ccccc3c2n1CC(C)(C)O [Resiquimod, resiquimod, reference compound]	1.00E+05		
